Experimental findings from patent US20020028836A1, “Potassium channel openers” (priority 2000, published 2002) are described below.

pEC50: −log10 of the molar value. Where two headings read alike, the source gives them in different places.

Experiment [1] has as its system tissue strips obtained from Landrace pig bladders. The experiment in a line: Functional potassium channel opening activity in isolated bladder strips (field-stimulated twitch). Particulars: for Index: ED50 for P1075 divided by ED50 for the test agonist in a given tissue, averaged; for pEC50: amount of agent necessary to cause 50% of the agent's maximal response, read-out: ED50 (the source's name); for Efficacy (% P1075) / Emax: maximal efficacy relative to P1075, field stimulation 0.05 Hz, 0.5 ms, 20 volts. A digest of the protocol:
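Mucosa-free female Landrace pig bladder strips in Krebs Ringer bicarbonate (pH 7.4, 37° C., 0.004 mM propranolol), 1.0 g preload, field-stimulated at 0.05 Hz, 0.5 ms, 20 V for twitch. Cumulative concentration-response curves; maximal efficacy as % of P1075, ED50 fitted, potency index = P1075 ED50/test ED50 per tissue, averaged.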

Experiment [2] has as its system primary cultured guinea-pig urinary bladder (GPB) cells. The experiment in a line: Membrane hyperpolarization (MHP) assay, DiBAC(4)3 / FLIPR. The experiment is classed as cell-based. Particulars: for pEC50: concentration that elicits 50% of the maximal response for the test sample; for Maximal Response (% P1075) / Emax: maximal steady-state hyperpolarization, normalized to response with 10 μM P1075 (100%). Here is the method: Compounds were evaluated for potassium channel opening activity using primary cultured guinea-pig urinary bladder (GPB) cells.
For the preparation of urinary bladder smooth muscle cells, urinary bladders were removed from male guinea-pigs (Hartley, Charles River, Wilmington, Mass.) weighing 300-400 g and placed in ice-cold Ca^2+-free Krebs solution (Composition, mM: KCl, 2.7; KH2PO4, 1.5; NaCl, 75; Na2HPO4, 9.6; Na2HPO4.7H2O, 8; MgSO4, 2; glucose, 5; HEPES, 10; pH 7.4). Cells were isolated by enzymatic dissociation as previously described with minor modifications (Klockner, U. and Isenberg, G., Pflugers Arch. (1985), 405, 329-339), hereby incorporated by reference. The bladder was cut into small sections and incubated in 5 mL of the Kreb's solution containing I mg/mL collagenase (Sigma, St. Louis, Mo.) and 0.2 mg/mL pronase (Calbiochem, La Jolla, Calif.) with continuous stirring in a cell incubator for 30 minutes. The mixture was then centrifuged at 1300×g for 5 minutes, and the pellet resuspended in Dulbecco's PBS (GIBCO, Gaithersburg, Md.) and recentrifuged to remove residual enzyme. The cell pellet was resuspended in 5 mL growth media (composition: Dulbecco's modified Eagle's medium supplemented with 10% fetal bovine serum, 100 units/mL penicillin, 100 units/mL streptomycin and […] amphotericin B) and further dissociated by pipetting the suspension through a flame-polished Pasteur pipette and passing it through a polypropylene mesh membrane (Spectrum, Houston, Tex.). The cell density was adjusted to 100,000 cells/mL by resuspension in growth media. Cells were plated in clear-bottomed black 96-well plates (Packard) for membrane potential studies at a density of 20,000 cells/well and maintained in a cell incubator with 90% air: 10% CO2 until confluent. Cells were confirmed to be of smooth muscle type by cytoskeletal staining using a monoclonal mouse anti human-α-smooth muscle actin (Biomeda, Foster City, Calif.).
Functional activity at potassium channels was measured by evaluating changes in membrane potential using the bis-oxonol dye DiBAC(4) (Molecular Probes) in a 96-well cell-based kinetic assay system, Fluorescent Imaging Plate Reader (FLIPR) (K. S. Schroeder et al., J. Biomed. Screen., v. 1 pp. 75-81 (1996)), hereby incorporated by reference. DiBAC(4)3 is an anionic potentiometric probe which partitions between cells and extracellular solution in a membrane potential-dependent manner. With increasing membrane potential (for example, K^+ depolarization), the probe further partitions into the cell; this is measured as an increase in fluorescence due to dye interaction with intracellular lipids and proteins. Conversely, decreasing membrane potential (hyperpolarization by potassium channel openers) evokes a decrease in fluorescence.
Confluent guinea-pig urinary bladder cells cultured in black clear-bottomed 96-well plates were rinsed twice with […] assay buffer (composition, mM: HEPES, 20; NaCl, 120; KCl, 2; CaCl2, 2; MgCl2, 1; glucose, 5; pH 7.4 at 25° C.) containing 5 μM DiBAC(4)3 and incubated with […] of the buffer in a cell incubator for 30 minutes at 37° C. to ensure dye distribution across the membrane. After recording the baseline fluorescence for 5 minutes, the reference or test compounds, prepared at 10 times the concentration in the assay buffer, were added directly to the wells. Changes in fluorescence were monitored for an additional 25 minutes. Hyperpolarization responses were corrected for any background noise and were normalized to the response observed with 10 μM of the reference compound P1075 (assigned as 100%), a potent opener of smooth muscle KATP channels (Quast et al., Mol. Pharmacol., v. 43 pp. 474-481 (1993)), hereby incorporated by reference.
Routinely, five concentrations of P1075 or test compounds (log or half-log dilutions) were evaluated and the maximal steady-state hyperpolarization values (expressed as % relative to P1075) plotted as a function of concentration. […]

Consider `CCC(CC)(CCC#N)C(NC(=O)c1ccc(Cl)cc1)NC(=NC#N)Nc1cccnc1` (single isomer, unassigned; (+)) [Example 87, (+) 4-chloro-N-(4-cyano-1-{[(cyanoimino)(3-pyridinylamino)methyl]amino}-2,2-diethylbutyl)benzamide], for which, in experiment [1], the Index stood at 0.02, the pEC50 was 5.12 and the “Efficacy (% P1075)” value was 67 % P1075. For the same compound, in experiment [2], the pEC50 is 6.28 and the “Maximal Response (% P1075)” value came to 85 % P1075.

As for `Cc1ccc(C(=O)NC(NC(=S)Nc2cc(F)ccc2F)C(F)(F)F)cc1` (stereo not drawn) [Example 14, N-(1-{[(2,5-difluoroanilino)carbothioyl]amino}-2,2,2-trifluoroethyl)-4-methylbenzamide], the Index in experiment [1] is 0.027. Further, in experiment [1] (Sus scrofa), the pEC50 was 4.85 and the Emax amounted to 96%. Moreover, in experiment [2] (Cavia porcellus), the pEC50 was 6.52 and the Emax was found to be 110%.

In experiment [1], `Cc1ccc(C(=O)NC(NC(=S)Nc2ccc(F)cc2)C(F)(F)F)cc1` (stereo not drawn) [Example 3, 4-methyl-N-(2,2,2-trifluoro-1-{[(4-fluoroanilino)carbothioyl]amino}ethyl)benzamide] showed an Index of 0.012. For the same compound, the pEC50 was 5.05 in experiment [1] (Sus scrofa) and 6.05 in experiment [2] (Cavia porcellus). Also, the Emax turned out to be 97% in experiment [1] (Sus scrofa) and 79% in experiment [2] (Cavia porcellus).

With `CCC(CC)(CCC#N)C(NC(=O)c1ccc(Cl)cc1)NC(=NC#N)Nc1cccnc1` (single isomer, unassigned; (-)) [Example 86, (−) 4-chloro-N-(4-cyano-1-{[(cyanoimino)(3-pyridinylamino)methyl]amino}-2,2-diethylbutyl)benzamide], in experiment [1], the Index stood at 0.01, the pEC50 is 4.52 and the “Efficacy (% P1075)” value was 19 % P1075. In experiment [2], the pEC50 was 7.07 and the “Maximal Response (% P1075)” value is listed as 83 % P1075.

In experiment [1], `Cc1ccc(C(=O)N[C@@H](NC(=S)Nc2cccnc2)C(C)(C)C)cc1` [Example 24, N-((1S)-2,2-dimethyl-1-{[(3-pyridinylamino)carbothioyl]amino}propyl)-4-methylbenzamide] had an Index of 0.007. Also, in experiment [1] (Sus scrofa), the pEC50 is 4.77 and the Emax was 100%. In experiment [2] (Cavia porcellus), the pEC50 was 7.10 and the Emax stood at 93%.

In turn, `Cc1ccc(C(=O)NC(NC(=S)Nc2cccc([N+](=O)[O-])c2)C(C)(C)C)cc1` (stereo not drawn) [Example 25, N-(2,2-dimethyl-1-{[(3-nitroanilino)carbothioyl]amino}propyl)-4-methylbenzamide] registered an Index in experiment [1] of 0.078. In experiment [1] (Sus scrofa), the pEC50 was 6.00 and the Emax was 100%. Moreover, in experiment [2] (Cavia porcellus), the pEC50 is 7.15 and the Emax was 103%.

With `Cc1ccc(C(=O)NC(NC(=NC#N)Nc2cccnc2)C(C)(C)C)cc1` (single isomer, unassigned; (+)) [Example 58, (+) N-(1-{[(cyanoimino)(3-pyridinylamino)methyl]amino}-2,2-dimethylpropyl)-4-methylbenzamide], in experiment [1], the Index was found to be 0.008, the pEC50 is 4.92 and the “Efficacy (% P1075)” value turned out to be 59 % P1075. In addition, in experiment [2], the pEC50 was 6.19 and the “Maximal Response (% P1075)” value is listed as 87 % P1075.

The compound `Cc1ccc(C(=O)NC(NC(=S)Nc2ccccc2F)C(F)(F)F)cc1` (stereo not drawn) [Example 11, 4-methyl-N-(2,2,2-trifluoro-1-{[(2-fluoroanilino)carbothioyl]amino}ethyl)benzamide] came in with an Index in experiment [1] of 0.011. Also, in experiment [1] (Sus scrofa), the pEC50 is 4.72 and the Emax is 100%. In experiment [2] (Cavia porcellus), this compound had a pEC50 of 6.29 and an Emax of 109%.

With `O=C(NC(NC(=S)Nc1ccccc1)C(F)(F)F)c1ccc(Cl)cc1` (stereo not drawn) [Example 20, N-{1-[(anilinocarbothioyl)amino]-2,2,2-trifluoroethyl}-4-chlorobenzamide], the Index in experiment [1] worked out at 0.011. Further, the pEC50 in experiment [1] (Sus scrofa) is 4.55; in experiment [2] (Cavia porcellus) it was 7.05. Further, the Emax in experiment [1] (Sus scrofa) turned out to be 84%; in experiment [2] (Cavia porcellus), 85%.

`Cc1ccc(C(=O)NC(NC(=S)Nc2cccc(F)c2F)C(F)(F)F)cc1` (stereo not drawn) [Example 18, N-(1-{[(2,3-difluoroanilino)carbothioyl]amino}-2,2,2-trifluoroethyl)-4-methylbenzamide] came in with an Index in experiment [1] of 0.020. For the same compound, the figures for the pEC50 in experiment [1] (Sus scrofa) and in experiment [2] (Cavia porcellus) were 5.10 and 7.05, respectively. In addition, the figures for the Emax in experiment [1] (Sus scrofa) and in experiment [2] (Cavia porcellus) were 97% and 123%, respectively.

In turn, `CC(C)(C)C(NC(=O)c1ccccc1)NC(=S)Nc1cccnc1` (stereo not drawn) [Example 28, N-(2,2-dimethyl-1-{[(3-pyridinylamino)carbothioyl]amino}propyl)benzamide] gave an Index in experiment [1] of 0.004. Besides, in experiment [1] (Sus scrofa), the pEC50 was 4.38 and the Emax came out at 100%. In experiment [2] (Cavia porcellus), this compound gave a pEC50 of 6.30 and an Emax of 77%.

Take `CC(C)(C)OC(=O)N1CCC[C@@H]1[C@@H](NC(=O)c1ccc(Cl)cc1)NC(=NC#N)Nc1cccnc1` [Example 98, Tert-butyl (2R)-2-((R)-[(4-chlorobenzoyl)amino]{[(cyanoimino)(3-pyridinylamino)methyl]amino}methyl)-1-pyrrolidinecarboxylate]: the Index in experiment [1] is 0.004. Moreover, the pEC50 in experiment [1] (Sus scrofa) is 4.48; in experiment [2] (Cavia porcellus) it was 5.96. Also, the Emax in experiment [1] (Sus scrofa) was found to be 30%; in experiment [2] (Cavia porcellus) it was 62%.

Consider `Cc1ccc(C(=O)NC(NC(=S)Nc2cccc(F)c2)C(F)(F)F)cc1` (stereo not drawn) [Example 13, 4-methyl-N-(2,2,2-trifluoro-1-{[(3-fluoroanilino)carbothioyl]amino}ethyl)benzamide], for which the Index in experiment [1] amounted to 0.022. For the same compound, the pEC50 in experiment [1] (Sus scrofa) was 5.00; in experiment [2] (Cavia porcellus) it was 6.46. Further, the Emax in experiment [1] (Sus scrofa) was 95%; in experiment [2] (Cavia porcellus), 91%.

In turn, `C=CCC(C)(C)C(NC(=O)c1ccc(Cl)cc1)NC(=NC#N)Nc1cccnc1` (single isomer, unassigned; (-)) [Example 90, (−) 4-chloro-N-(1-{[(cyanoimino)(3-pyridinylamino)methyl]amino}-2,2-dimethyl-4-pentenyl)benzamide] had an Index in experiment [1] of 0.420. Moreover, the pEC50 is 6.38 in experiment [1] (Sus scrofa) and 6.77 in experiment [2]. The Emax turned out to be 44% in experiment [1] (Sus scrofa) and 55% in experiment [2] (Cavia porcellus).

For `Cc1ccc(C(=O)NC(NC(=NC#N)Nc2cccnc2)C(C)(C)C)cc1` (single isomer, unassigned; (-)) [Example 57, (−) N-(1-{[(cyanoimino)(3-pyridinylamino)methyl]amino}-2,2-dimethylpropyl)-4-methylbenzamide], in experiment [1], the Index was found to be 0.007, the pEC50 was 4.85 and the “Efficacy (% P1075)” value came out at 85 % P1075. In experiment [2], the pEC50 was 5.34 and the “Maximal Response (% P1075)” value is 80 % P1075.

Usually Emax stands for the size of the effect at its maximum, as opposed to the concentration needed.
